Laboratory results from patent publication US8324197B2, “Transplatinum complexes with N2O2 donor sets as cytotoxic and antitumor agents” (Virginia Commonwealth University, priority 2005, dated 2012).

What was measured:
[1] = Reaction with N-AcMet followed by 195Pt NMR
Description: The slow hydrolysis is a unique feature of two carboxylate ligands in a trans-axial position and can be modulated by choice of carboxylate. To examine how this might affect possible reactions with biomolecules, a preliminary study of the reactions of 4e with guanosine-5′-monophosphate (5′-GMP, model for DNA) and N-acetyl-L-methionine (N-AcMet, model for sulfur ligand metabolism) was made by ^195Pt NMR Spectroscopy. In the case of 5′-GMP the peak of the starting material at −1450 ppm is only gradually replaced by a new peak at −2365 ppm. This shift is consistent with the formation of a species that has a PtN4 coordination sphere,^26 due to replacement of both formate groups. Approximately 50% reaction (as judged by the intensity of the ^1H H8 signal and ^195Pt NMR signals), occurred within 24h. For N-AcMet the starting material was approximately 50% of total intensity even after 8 h. […] The chemical shift is consistent with a PtN2O2 coordination sphere—this could arise from displacement of formate by H2O/OH or an O-bound methionine.^27 This species preceded the formation of the N-AcMet product at −3320 ppm consistent with a PtN2S2 coordination sphere, trans-[Pt(NH3)(4-pic)(NAcMet)2],^23,28 which was 40% of the total platinum species after 10 h. […] Whether the possible formation of an O-bound methionine species is a reflection of the low pKal and the electronic effects of a π-acceptor ligand is worthy of further investigation.

[2] = Solubility of TPA carboxylates, Example 6; assay type: physicochemical; settings: aqueous; table title ambient temperature, text 37° C.
[3] = test system: human ovarian cancer cell line A2780; test: MTT growth inhibition assay; assay type: cell-based; settings: 72 h
Description: • (1) Van Beusichem, M.; Farrell, N. Inorg. Chem. 1992, 31, 634-639. • (2) Farrell, N.; Kelland, L. R.; Roberts, J. D.; Van Beusichem, M. Cancer Res. 1992, 52, 5065-5072. • (3) Farrell, N. Cancer Invest. 1993, 11, 578-589. • (4) Coluccia, M.; Nassi, A.; Loseto, F.; Boccarelli, A.; Mariggio, M. A.; Giordano, D.; Intini, F. P.; Caputo, P.; Natile, G. J. Med. Chem. 1993, 36, 510-512. • (5) Khazanov, E.; Barenholz, Y.; Gibson, D.; Najajreh, Y. J. Med. Chem. 2002, 45, 5196-5204. • (6) Najajreh, Y.; Perez, J. M.; Navarro-Ranninger, C.; Gibson, D. J. Med. Chem. 2002, 45, 5189-5195. • (7) Montero, E. I.; Diaz, S.; Gonzalez-Vadillo, A. M.; Perez, J. M.; Alonso, C.; Navarro-Ranninger, C. J. Med. Chem. 1999, 42, 4264-4268. • (8) Natile, G.; Coluccia, M. Coord. Chem. Rev. 2001, 216-217, 383-410. • (9) Fojo, T.; Farrell, N.; Ortuzar, W.; Tanimura, H.; Weinstein, J.; Myers Timothy, G. I Crit. Rev. Oncol./ Hematol. 2005, 53, 25-34. • (10) Murphy, R. F.; Farrell, N.; Aguila, A.; Okada, M.; Balis, F. M.; Fojo, T. Proc. Am. Assoc. […] IC50 values were determined graphically

[4] = Initial hydrolysis of TPA carboxylates monitored by HPLC at 37° C.; assay type: physicochemical; settings: H2O, I=0.02 M
Procedure: The slowest initial hydrolysis rate was found for complex 2c t-[Pt(OAc)2(NH3)(2-pic)], with just 4% hydrolysis occurring after 9 h. The hydrolysis of the formate complex 4f was the fastest, with 24% hydrolysis occurring after 9 h. The hydrolysis rates of the acetate complexes followed the pattern 2c<4c<3c. […] Thus, hydrolysis of the acetate complexes is slowed by an approximate order of magnitude compared to their direct chloro analogs but there is little difference in the present case between 3- and 4-picoline. Steric hindrance therefore predominates over the electronic effects of the methyl group. In the case of the chloride complexes, the 3-pic directs less electron density to the platinum rendering it less nucleophilic relative to the 2-pic and 4-pic. 14 We observe the same trend in the acetate complexes, but the effect is lessened due to the carboxylate group being a weak ligand, with a low trans influence and trans effect.^11

[5] = test system: guanosine-5′-monophosphate (5′-GMP, model for DNA); test: Reaction with 5′-GMP followed by 195Pt NMR; settings: within 24 h
Description: The slow hydrolysis is a unique feature of two carboxylate ligands in a trans-axial position and can be modulated by choice of carboxylate. To examine how this might affect possible reactions with biomolecules, a preliminary study of the reactions of 4e with guanosine-5′-monophosphate (5′-GMP, model for DNA) and N-acetyl-L-methionine (N-AcMet, model for sulfur ligand metabolism) was made by ^195Pt NMR Spectroscopy. In the case of 5′-GMP the peak of the starting material at −1450 ppm is only gradually replaced by a new peak at −2365 ppm. This shift is consistent with the formation of a species that has a PtN4 coordination sphere,^26 due to replacement of both formate groups. Approximately 50% reaction (as judged by the intensity of the ^1H H8 signal and ^195Pt NMR signals), occurred within 24h. For N-AcMet the starting material was approximately 50% of total intensity even after 8 h. […] The chemical shift is consistent with a PtN2O2 coordination sphere—this could arise from displacement of formate by H2O/OH or an O-bound methionine.^27 This species preceded the formation of the N-AcMet product at −3320 ppm consistent with a PtN2S2 coordination sphere, trans-[Pt(NH3)(4-pic)(NAcMet)2],^23,28 which was 40% of the total platinum species after 10 h. […]

A2780 = test: Growth inhibition in human ovarian cancer cell line panel, 96 h exposure; assay type: cell-based
Procedure: (§1) It is noteworthy that the acetate compounds maintain cytotoxicity with low resistance factors in all cases. The trans-[Pt(OAc)2(NH3)2] compound is also very water-soluble but the cytotoxicity of >100 μM confirms the requirement for a planar amine to enhance cytotoxicity in the trans geometry.

CH1 = test: as above; assay type: cell-based
Procedure: as §1

41M = test: as above; assay type: cell-based
Procedure: as §1

[6] = Hydrolysis (first aquation step) followed by HPLC, Example 5; assay type: physicochemical; settings: nanopure water
Procedure: For hydrolysis studies, […] complex was dissolved in 1 mL of nanopure water. The pH values of the samples were controlled in regular intervals and readjusted if necessary by addition of HNO3 (1 M, 0.1 M, 0.01 M) or NaOH (1 M, 0.1 M, 0.01 M). Aliquots of 20 μL were taken from the bulk solution for HPLC analysis. The overall scheme may be described as follows:
The aquated species were identified by comparison with the hydrolysis profile produced by the corresponding (labile) nitrate compounds. The rate constants for the first aquation step k1 are given in Table 2 and compared with other platinum complexes containing one or two labile ligands. […] In particular, these rates are 2-3 orders of magnitude lower than that of transplatin itself. The rate of aquation tends toward that of carboplatin which in phosphate buffer at 310 K gave a hydrolysis rate of 7.2×10^−7 s^−1 (but in aqueous solution gives a barely measurable rate constant of <5×10^−9 s^−1, which is modulated by the presence of buffer, nucleophile or acid). ^31,32No evidence for formation of Pt(TV) species during hydrolysis is detected under these conditions.^33

[7] = Aqueous solubility of TPA-acetate complexes (sequential addition of water); assay type: physicochemical; settings: ambient temperature
Procedure: (§2) The aqueous solubility of the acetate compounds and the acid dissociation constants of the corresponding aqua species are given in Table 1. Use of acetates enhances aqueous solubility which is dependent on the exact nature of the donor ligands. The pKa values were determined by potentiometric titration of solutions of trans-[Pt(H2O)2(L)(L′)]^2+ (formed by the dissolution of the isolated trans-[Pt(NO3)2(L)(L′)]) with NaOH. […] (X=2,3,4-Me).^30

[8] = pKa of corresponding TPA diaqua complexes by potentiometric titration with NaOH; assay type: physicochemical; settings: corresponding diaqua complex trans-[Pt(OH2)2(L)(L′)], ambient temperature
Procedure: as §2

[9] = RF = (IC50 Resistant)/(IC50 Sensitive)

| starting material remaining, of total intensity ([1]; after 8 h) | N-AcMet product at −3320 ppm (PtN2S2), of total platinum species ([1]; after 10 h) [%] | new species at −1775 ppm (PtN2O2), of total reaction product ([1]; over 10 h) [%] | Solubility (mg/mL), TPA Substituted Carboxylates [2] [mg/mL] | k1, initial hydrolysis rate constant [4] [s⁻¹] | reaction with 5′-GMP (by 1H H8 and 195Pt NMR signal intensity) [5] | IC50 (A2780) [µM] | IC50 (CH1) [µM] | IC50 (41M) [µM] | k1, rate constant for the first aquation step [6] | Solubility [7] [mg/mL] | pKa1 [8] | pKa2 [8] | Structure (SMILES) | cytotoxicity (growth inhibition) [3] | A2780 RF (A2780; [9]) | CH1 RF (CH1; [9]) | 41M RF (41M; [9]) |
| --- | --- | --- | --- | --- | --- | --- | --- | --- | --- | --- | --- | --- | --- | --- | --- | --- | --- |
| Approximately 50% | 40 | ≤ 15 | 35 | 1.07e-05 | Approximately 50% |  |  |  |  |  |  |  | Cc1ccncc1.N.O=C[O-].O=C[O-].[Pt+2] [4e, trans-[Pt(OFm)2(NH3)(4-pic)]] | most cytotoxic |  |  |  |
|  |  |  |  |  |  | 13 | 20 | 22 | (7.4 ± 1.5) × 10^−7 s^−1 | 5.2 | 3.78 | 6.92 | CC(=O)[O-].CC(=O)[O-].N.[Pt+2].c1ccc2cnccc2c1 [trans-[Pt(OAc)2(NH3)(iquin)], trans-[diacetato(ammine)(isoquinoline)platinum(II)]] |  | (1.69) | (0.37) | (0.26) |
